Experimental data reported in ChEMBL document CHEMBL1201862, “PubChem BioAssay data set” (2004).
The source made the active and inactive calls.

Experiments:
[1] = molecular target: Mothers against decapentaplegic homolog 3 (Homo sapiens, UniProt P84022); test: SMAD3 transcription factor inhibitors, dose response (AID 715); assay type: functional
[2] = molecular target: T1, Sentrin-specific protease 8 (Homo sapiens, UniProt Q96LD8); assay type: functional;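 note: luminescence read-out of SENP8 inhibition, dose-response confirmation following an ultra-high-throughput screen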
T1 sequence (Q96LD8 whole entry): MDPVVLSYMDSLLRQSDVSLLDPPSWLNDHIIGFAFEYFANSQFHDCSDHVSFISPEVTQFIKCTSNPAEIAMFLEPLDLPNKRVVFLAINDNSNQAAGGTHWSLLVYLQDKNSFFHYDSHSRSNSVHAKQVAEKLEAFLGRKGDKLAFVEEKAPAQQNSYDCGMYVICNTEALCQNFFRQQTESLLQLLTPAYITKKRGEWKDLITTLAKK

[3] = molecular target: SUMO E1/E2 (Homo sapiens, UniProt P63279+Q9UBE0+Q9UBT2); test: SAR analysis of SUMOylation using HTRF in an in-Vitro dose response assay. [Related pubchem assays (depositor defined):AID2006, AID2011, AID2018, AID2069, AID2658]; assay type: functional
[4] = molecular target: 5-hydroxytryptamine receptor 5A (Homo sapiens, UniProt P47898); test: Counterscreen for agonists of OPRM1-OPRD1 heterodimerization: luminescence-based cell-based high throughput dose response assay to identify agonists of 5-hydroxytryptamine (serotonin) 5A receptor (HTR5A). [Related pubchem assays (depositor defined):AID504326, AID504355, AID504692, AID504904, AID504905]; assay type: functional
[5] = molecular target: Delta-type opioid receptor (Homo sapiens, UniProt P41143); test: Counterscreen for agonists of heterodimerization of the mu 1 (OPRM1) and delta 1 (OPRD1) opioid receptors: Luminescence-based cell-based high throughput dose response assay to identify agonists of OPRD1 homodimerization. [Related pubchem assays (depositor defined):AID504326, AID504355, AID504692, AID504904, AID504905]; assay type: functional
[6] = molecular target: T2, Ubiquitin-conjugating enzyme E2 N (Homo sapiens, UniProt P61088); assay type: functional;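 note: Dose-response confirmation in a TR-FRET assay detecting UBC13-driven polyubiquitin chain formation, inhibition measured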
T2 sequence (P61088 whole entry): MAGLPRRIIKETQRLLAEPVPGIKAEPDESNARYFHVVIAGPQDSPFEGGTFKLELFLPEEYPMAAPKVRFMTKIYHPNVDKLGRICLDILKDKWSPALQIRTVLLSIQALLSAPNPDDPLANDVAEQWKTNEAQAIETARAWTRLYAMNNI

[7] = molecular target: Large T antigen (Simian virus 40, UniProt P03070); assay type: functional, Betapolyomavirus macacae;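 note: Confirmatory-stage PubChem screen for compounds that inhibit SV40 T antigen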
[8] = molecular target: Voltage-gated N-type calcium channel alpha-1B subunit/Amyloid beta A4 precursor protein-binding family A member 1 (Homo sapiens, UniProt Q00975+Q02410); assay type: protein assay
[9] = molecular target: T3, Insulin-degrading enzyme (Homo sapiens, UniProt P14735); test: activators of endogenous IDE in HEK cells, dose response, cell-based, fluorescence polarization (AID 588439); assay type: functional
T3 sequence (P14735 whole entry): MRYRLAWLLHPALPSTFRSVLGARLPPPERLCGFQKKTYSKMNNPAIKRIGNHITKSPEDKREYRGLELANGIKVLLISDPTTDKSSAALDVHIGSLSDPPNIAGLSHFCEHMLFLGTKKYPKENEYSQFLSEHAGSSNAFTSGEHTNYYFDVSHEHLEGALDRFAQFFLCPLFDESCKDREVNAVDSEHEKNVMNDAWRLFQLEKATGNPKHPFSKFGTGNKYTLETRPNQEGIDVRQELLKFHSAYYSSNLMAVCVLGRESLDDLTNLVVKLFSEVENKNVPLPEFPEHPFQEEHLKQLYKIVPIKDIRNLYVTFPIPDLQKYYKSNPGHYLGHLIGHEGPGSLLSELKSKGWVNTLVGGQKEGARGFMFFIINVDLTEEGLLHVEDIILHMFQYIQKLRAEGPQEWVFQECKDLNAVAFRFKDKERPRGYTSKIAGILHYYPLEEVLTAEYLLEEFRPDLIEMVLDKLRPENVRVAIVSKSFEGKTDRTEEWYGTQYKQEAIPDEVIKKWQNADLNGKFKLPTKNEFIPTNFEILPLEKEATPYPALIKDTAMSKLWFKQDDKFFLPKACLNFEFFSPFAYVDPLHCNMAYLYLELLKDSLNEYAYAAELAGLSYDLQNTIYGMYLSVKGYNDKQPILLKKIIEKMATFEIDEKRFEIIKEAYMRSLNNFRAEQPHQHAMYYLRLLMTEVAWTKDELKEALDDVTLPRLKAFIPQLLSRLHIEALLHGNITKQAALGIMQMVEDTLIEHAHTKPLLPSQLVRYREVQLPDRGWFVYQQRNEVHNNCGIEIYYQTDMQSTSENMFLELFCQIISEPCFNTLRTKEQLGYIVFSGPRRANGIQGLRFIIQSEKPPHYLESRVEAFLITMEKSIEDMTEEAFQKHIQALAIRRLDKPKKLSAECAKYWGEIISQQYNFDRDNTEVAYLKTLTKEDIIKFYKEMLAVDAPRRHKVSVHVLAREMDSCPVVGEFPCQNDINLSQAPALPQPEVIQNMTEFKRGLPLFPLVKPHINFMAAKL

[10] = molecular target: T4, Caspase-6 (Homo sapiens, UniProt P55212); test: human caspase-6 inhibitors, dose response, biochemical, VEID-R110 fluorescence, cherry-pick (AID 720632)
T4 sequence (P55212 whole entry): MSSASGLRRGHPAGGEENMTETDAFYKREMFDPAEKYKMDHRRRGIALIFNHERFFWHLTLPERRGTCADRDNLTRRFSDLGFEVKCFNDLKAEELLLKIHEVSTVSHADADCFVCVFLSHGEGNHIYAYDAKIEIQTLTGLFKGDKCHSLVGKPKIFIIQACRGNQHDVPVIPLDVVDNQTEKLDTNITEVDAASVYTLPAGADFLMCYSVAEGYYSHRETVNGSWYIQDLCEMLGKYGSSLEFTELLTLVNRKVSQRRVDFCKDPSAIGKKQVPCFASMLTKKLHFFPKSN

[11] = test system: HEK293; test: optical interference in Abeta FP readout, dose response, artefact control for IDE activator project, biochemical, fluorescence polarization (AID 588442); assay type: functional, cell-based; details: Homo sapiens
[12] = test system: HEK293; test: HEK cell cytotoxicity by LDH release, dose response, cytotoxicity control for IDE activator project, fluorescence, HEK cells (AID 588440); assay type: functional, cell-based; details: Homo sapiens;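 note: cytotoxicity by LDH release measuring loss of membrane integrity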
[13] = molecular target: Alkaline phosphatase, tissue-nonspecific isozyme (Homo sapiens, UniProt P05186)
[14] = molecular target: Beta-lactamase (Salmonella choleraesuis (strain SC-B67), UniProt Q5J463)
Sequence of Beta-lactamase (Q5J463 whole entry): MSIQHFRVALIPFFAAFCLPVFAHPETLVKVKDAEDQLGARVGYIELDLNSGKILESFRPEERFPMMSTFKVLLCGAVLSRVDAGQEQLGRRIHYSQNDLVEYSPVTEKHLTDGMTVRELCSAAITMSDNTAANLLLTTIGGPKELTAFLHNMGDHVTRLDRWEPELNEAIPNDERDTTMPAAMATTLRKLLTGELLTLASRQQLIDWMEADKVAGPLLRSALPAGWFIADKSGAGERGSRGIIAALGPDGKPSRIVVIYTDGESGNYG

Sequence of Mothers against decapentaplegic homolog 3 (P84022 whole entry): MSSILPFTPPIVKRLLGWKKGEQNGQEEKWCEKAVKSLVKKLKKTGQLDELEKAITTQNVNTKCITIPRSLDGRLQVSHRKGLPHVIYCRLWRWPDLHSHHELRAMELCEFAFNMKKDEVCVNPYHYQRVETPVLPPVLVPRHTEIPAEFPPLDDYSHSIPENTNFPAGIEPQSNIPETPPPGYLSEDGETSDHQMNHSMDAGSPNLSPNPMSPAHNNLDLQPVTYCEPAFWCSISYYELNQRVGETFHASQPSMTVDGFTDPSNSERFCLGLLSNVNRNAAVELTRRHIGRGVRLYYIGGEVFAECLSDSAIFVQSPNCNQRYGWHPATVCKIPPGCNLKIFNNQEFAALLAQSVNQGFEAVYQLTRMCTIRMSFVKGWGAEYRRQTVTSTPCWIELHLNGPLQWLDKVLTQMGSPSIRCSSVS
Sequence of Delta-type opioid receptor (P41143 whole entry): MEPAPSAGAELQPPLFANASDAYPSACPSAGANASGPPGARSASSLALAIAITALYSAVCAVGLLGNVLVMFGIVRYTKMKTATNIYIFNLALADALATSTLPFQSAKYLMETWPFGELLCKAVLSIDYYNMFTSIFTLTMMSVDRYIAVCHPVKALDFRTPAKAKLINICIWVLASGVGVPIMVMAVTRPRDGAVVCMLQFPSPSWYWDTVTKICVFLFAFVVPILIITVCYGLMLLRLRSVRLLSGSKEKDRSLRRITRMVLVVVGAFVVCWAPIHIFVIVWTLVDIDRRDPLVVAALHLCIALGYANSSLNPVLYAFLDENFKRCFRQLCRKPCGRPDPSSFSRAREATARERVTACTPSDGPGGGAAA
Sequence of Voltage-gated N-type calcium channel alpha-1B subunit/Amyloid beta A4 precursor protein-binding family A member 1 (Q00975 whole entry): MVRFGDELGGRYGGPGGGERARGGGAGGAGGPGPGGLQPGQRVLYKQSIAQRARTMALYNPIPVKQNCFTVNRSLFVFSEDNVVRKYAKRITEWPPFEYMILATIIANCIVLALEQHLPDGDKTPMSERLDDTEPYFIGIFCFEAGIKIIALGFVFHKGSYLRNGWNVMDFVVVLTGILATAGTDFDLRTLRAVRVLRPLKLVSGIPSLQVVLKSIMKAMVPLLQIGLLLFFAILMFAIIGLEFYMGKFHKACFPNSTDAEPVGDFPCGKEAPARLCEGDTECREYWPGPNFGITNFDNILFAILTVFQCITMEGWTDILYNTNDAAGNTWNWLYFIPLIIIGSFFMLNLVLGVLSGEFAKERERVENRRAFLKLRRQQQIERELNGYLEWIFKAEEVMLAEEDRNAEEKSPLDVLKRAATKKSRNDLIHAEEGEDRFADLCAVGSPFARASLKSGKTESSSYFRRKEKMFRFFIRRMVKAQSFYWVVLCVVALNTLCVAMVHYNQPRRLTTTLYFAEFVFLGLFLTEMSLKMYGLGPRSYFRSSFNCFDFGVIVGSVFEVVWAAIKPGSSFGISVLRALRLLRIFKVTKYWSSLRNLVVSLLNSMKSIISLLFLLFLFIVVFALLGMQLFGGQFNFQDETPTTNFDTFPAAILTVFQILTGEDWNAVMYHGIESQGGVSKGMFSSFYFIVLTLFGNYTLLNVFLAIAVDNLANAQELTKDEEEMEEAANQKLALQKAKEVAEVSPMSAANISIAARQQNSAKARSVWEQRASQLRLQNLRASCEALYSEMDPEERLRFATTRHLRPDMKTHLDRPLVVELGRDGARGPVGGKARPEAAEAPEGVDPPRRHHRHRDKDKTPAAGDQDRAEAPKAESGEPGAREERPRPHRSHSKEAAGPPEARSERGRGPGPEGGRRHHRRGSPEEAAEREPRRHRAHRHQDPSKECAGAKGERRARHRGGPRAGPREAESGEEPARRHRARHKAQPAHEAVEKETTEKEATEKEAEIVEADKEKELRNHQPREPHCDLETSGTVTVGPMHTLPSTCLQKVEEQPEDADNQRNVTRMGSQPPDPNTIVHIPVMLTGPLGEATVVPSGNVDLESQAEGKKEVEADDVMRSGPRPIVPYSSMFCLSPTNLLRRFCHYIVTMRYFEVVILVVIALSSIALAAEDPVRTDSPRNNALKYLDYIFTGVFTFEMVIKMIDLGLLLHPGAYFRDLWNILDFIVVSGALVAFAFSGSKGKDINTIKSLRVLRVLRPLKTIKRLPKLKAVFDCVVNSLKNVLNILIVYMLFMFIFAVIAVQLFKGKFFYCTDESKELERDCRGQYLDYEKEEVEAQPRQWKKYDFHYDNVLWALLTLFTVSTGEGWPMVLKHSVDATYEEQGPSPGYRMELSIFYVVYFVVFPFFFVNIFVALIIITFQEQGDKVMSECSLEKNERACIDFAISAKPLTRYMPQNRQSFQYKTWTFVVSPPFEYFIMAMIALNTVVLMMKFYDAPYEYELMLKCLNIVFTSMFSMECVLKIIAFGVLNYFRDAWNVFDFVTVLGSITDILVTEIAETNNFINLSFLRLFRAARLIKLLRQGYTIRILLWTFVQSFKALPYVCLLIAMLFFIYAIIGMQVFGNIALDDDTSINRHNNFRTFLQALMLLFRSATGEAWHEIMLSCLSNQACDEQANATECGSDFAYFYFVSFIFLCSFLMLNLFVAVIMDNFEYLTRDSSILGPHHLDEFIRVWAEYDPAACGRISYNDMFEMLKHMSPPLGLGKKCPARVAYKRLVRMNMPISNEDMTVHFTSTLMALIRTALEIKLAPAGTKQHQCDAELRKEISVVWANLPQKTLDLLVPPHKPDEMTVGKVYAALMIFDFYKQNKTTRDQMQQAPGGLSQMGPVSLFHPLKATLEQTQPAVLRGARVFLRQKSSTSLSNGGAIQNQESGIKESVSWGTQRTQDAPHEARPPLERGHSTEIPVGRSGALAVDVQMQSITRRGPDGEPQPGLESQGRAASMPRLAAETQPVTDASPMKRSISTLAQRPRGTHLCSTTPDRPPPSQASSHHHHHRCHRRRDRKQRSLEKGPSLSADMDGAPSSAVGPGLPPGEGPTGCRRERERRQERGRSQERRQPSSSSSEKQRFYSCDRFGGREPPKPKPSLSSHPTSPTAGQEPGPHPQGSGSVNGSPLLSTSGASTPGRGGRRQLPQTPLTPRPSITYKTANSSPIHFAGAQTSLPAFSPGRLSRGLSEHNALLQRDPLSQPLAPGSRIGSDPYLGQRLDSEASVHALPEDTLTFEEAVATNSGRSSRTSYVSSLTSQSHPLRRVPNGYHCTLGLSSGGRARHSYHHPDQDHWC
Sequence of Voltage-gated N-type calcium channel alpha-1B subunit/Amyloid beta A4 precursor protein-binding family A member 1 (Q02410 whole entry): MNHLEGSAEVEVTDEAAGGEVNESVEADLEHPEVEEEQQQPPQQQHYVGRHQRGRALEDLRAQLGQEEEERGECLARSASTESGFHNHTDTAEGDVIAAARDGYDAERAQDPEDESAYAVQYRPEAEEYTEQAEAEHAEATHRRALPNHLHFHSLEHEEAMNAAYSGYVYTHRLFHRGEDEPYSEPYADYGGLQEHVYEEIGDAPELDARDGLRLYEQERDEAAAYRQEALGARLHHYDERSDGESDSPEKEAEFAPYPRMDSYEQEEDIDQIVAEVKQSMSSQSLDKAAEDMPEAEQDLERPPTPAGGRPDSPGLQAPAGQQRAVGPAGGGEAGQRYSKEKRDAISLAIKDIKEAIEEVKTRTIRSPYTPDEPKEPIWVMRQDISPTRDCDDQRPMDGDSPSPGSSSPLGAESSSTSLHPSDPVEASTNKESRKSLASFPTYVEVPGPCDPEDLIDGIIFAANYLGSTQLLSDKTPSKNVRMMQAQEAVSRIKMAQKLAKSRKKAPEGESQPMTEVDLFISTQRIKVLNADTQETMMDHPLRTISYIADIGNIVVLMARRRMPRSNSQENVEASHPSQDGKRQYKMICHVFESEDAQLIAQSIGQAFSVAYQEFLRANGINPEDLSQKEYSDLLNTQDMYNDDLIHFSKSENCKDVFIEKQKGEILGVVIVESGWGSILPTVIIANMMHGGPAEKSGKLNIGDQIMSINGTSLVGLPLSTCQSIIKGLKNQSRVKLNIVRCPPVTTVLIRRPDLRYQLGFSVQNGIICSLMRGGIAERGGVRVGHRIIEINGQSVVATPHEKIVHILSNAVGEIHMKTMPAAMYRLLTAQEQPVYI
Sequence of Alkaline phosphatase, tissue-nonspecific isozyme (P05186 whole entry): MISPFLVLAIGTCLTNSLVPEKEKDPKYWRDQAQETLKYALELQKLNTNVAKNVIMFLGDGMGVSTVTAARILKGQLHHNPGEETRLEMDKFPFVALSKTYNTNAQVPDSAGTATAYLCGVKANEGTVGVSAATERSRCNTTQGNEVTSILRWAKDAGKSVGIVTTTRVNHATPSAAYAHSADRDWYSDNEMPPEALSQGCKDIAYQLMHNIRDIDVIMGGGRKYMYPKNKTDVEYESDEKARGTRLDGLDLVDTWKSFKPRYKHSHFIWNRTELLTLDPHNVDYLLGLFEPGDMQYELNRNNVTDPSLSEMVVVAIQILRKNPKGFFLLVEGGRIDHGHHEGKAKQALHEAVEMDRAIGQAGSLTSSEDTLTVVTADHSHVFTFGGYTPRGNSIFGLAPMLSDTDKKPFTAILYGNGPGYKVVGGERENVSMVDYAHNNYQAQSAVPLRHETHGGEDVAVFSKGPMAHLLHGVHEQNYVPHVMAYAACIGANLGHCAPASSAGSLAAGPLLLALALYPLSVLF

## Oc1nc(Nc2ccccc2)cc2ccccc12
[1]
  IC50: 19.6 µM (active)
[2]
  IC50: 0.899 µM (active)
[3]
  IC50: 6.32 µM (active)

## CCCCCCCCCCOC(=O)C[n+]1c(COc2ccccc2C)n(C)c2ccccc21
[4]
  EC50: > 92.5 µM (inactive)
[5]
  EC50: > 92.5 µM (inactive)
[6]
  IC50: > 20 µM (inactive)

## COc1cc(OC)c(-c2c3cc(O)c(=O)cc-3oc3cc(O)c(O)cc23)cc1OC
[7]
  IC50: 1.73 µM (active)
[8]
  IC50: 12.5 µM (active)
[9]
  EC50: > 54.7 µM (inactive)
[10]
  AC50: 0.0367 µM (active)
[11]
  EC50: > 6.21 µM (active)
[12]
  IC50: > 89.2 µM (inactive)
[13]
  EC50: > 100 µM (not active)
[14]
  IC50: 2.13 µM (active)
